Measured values taken from patent US8846704B2, “Thiopyrimidine-based compounds and uses thereof” (YM Biosciences Austraila Pty Ltd, priority 2007, dated 2014).
pIC50: −log10 of the molar value.

Biological target: T1, human CSF1-R (FMS) (Homo sapiens, UniProt P07333)
T1 construct: from codon I553 to Q961; GST (N); made in house; host or cells: Sf9 insect cells (baculovirus)
T1 sequence (P07333 553-961): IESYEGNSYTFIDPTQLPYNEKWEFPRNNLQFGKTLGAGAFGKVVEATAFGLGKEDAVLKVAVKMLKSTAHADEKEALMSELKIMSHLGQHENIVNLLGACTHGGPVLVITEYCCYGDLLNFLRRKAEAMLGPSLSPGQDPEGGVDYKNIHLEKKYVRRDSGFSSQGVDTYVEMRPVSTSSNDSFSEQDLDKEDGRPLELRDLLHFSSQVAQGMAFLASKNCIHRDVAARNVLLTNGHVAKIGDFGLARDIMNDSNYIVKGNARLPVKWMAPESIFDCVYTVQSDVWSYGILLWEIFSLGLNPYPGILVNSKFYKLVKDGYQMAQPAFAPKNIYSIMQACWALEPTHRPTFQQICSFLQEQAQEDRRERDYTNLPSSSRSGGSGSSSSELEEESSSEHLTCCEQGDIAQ
Assay: Alphascreen tyrosine kinase enzyme assay, CSF-1R (FMS) kinase domain
Type: biochemical
Conditions: read-out: FMS, FLT3, or HCK IC50_nM (FMS)
Method: For screening purposes, compounds (in 100% DMSO) were warmed at 37 degrees for at least 20 minutes before use. A […] stock was initially made in assay buffer, where the final concentration of DMSO was 0.3%. The stocks were then diluted in 384 well Optiplates (Packard) where the final concentration of the compound was […].
The kinase domain of human CSF1-R from codon I553 to Q961 was cloned into the pDest20 expression vector (Invitrogen). The CSF1-R plasmid was then transformed into competent DH10Bac cells (Gibco), and the recombinant baculovirus produced prepared for transfection into Sf9 insect cells.
Baculovirus preparations from each of the constructs were infected into either one or five liters of Sf9 cells (Invitrogen) grown in SF-900 medium (Invitrogen) to a cell density of approximately 1-2×10^6 cells/ml. Cells were infected with virus at a MOI of 0.8-3.0. Cells were harvested and lysed. Tyrosine kinase domains were purified by affinity chromatography on a glutathione-agarose column (Scientifix Pty. Ltd. catalog #: GSH-200).
Kinase assays were performed in 384 well Optiplates (Packard) using an Alphascreen Protein Tyrosine Kinase PY100 detection kit The compounds were pre-incubated with affinity purified PTK domain in the presence of phosphotyrosine assay buffer (10 mM HEPES, pH 7.5, 100 mM MgCl2, 25 mM NaCl, […] and 0.1% Tween 20) for 20 minutes. The compounds were then incubated with substrate in the presence of ATP. The substrate used was susbtrate-1 with the sequence biotin-EGPWLEEEEEAYGWMDF-NH2 [SEQ. ID. NO. 13] (final concentration […]). For HCK 80 μm ATP was used and incubated for 60 minutes. Alphascreen phosphotyrosine acceptor beads followed by streptavidin donor beads at a concentration of 1/100 in stop buffer were added to each well under subdued light and incubated for 2-3 hours., The Alphascreen plates were read on a Packard Fusion Alpha instrument.

| Compound | pIC50 |
| --- | --- |
| C=CC(=O)Nc1ccc(Sc2ccnc(Nc3cccc(N4CCOCC4)c3)n2)cc1 [Compound 77, N-(4-(2-(3-morpholinophenylao)pyrimidin-4-ylthio)phenyl)acrylamide] | > 6.30 |
| C=CC(=O)Nc1ccc(Sc2ccnc(Nc3cc(C)cc(C)c3)n2)cc1 [Compound 82, N-(4-(2-(3,5-dimethylphenylao)pyrimidin-4-ylthio)phenyl)acrylamide] | > 6.30 |
